Assay results as given in US20150274719A1, “AMINO-SUBSTITUTED IMIDAZO[1,2-A]PYRIDINECARBOXAMIDES AND THEIR USE” (BAYER PHARMA AKTIENGESELLSCHAFT, priority 2012, published 2015).

Biological target: T1, recombinant guanylate cyclase reporter cell line (Rattus norvegicus, UniProt P19686+P20595)
T1 construct: expressed in transfected cells; host or cells: recombinant reporter cell line
T1 sequence (P19686 1-690): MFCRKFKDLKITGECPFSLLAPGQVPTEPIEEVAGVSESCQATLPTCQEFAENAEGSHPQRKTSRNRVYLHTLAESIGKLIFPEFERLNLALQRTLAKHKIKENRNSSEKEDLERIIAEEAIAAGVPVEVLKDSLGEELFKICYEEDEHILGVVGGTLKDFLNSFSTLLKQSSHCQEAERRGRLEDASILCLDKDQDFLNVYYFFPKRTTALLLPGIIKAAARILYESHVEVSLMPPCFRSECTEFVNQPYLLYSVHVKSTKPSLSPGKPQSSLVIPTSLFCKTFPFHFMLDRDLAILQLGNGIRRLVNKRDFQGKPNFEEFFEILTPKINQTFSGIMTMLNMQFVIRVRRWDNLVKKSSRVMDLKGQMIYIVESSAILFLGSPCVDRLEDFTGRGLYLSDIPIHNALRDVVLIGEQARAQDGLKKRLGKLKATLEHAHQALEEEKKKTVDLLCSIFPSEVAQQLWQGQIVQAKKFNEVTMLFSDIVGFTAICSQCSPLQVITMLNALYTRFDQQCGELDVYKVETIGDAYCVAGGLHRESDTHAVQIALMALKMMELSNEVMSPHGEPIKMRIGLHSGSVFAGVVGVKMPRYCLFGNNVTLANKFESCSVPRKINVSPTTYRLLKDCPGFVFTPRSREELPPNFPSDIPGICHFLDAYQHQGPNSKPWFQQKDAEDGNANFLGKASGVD
T1 sequence (P20595 1-619): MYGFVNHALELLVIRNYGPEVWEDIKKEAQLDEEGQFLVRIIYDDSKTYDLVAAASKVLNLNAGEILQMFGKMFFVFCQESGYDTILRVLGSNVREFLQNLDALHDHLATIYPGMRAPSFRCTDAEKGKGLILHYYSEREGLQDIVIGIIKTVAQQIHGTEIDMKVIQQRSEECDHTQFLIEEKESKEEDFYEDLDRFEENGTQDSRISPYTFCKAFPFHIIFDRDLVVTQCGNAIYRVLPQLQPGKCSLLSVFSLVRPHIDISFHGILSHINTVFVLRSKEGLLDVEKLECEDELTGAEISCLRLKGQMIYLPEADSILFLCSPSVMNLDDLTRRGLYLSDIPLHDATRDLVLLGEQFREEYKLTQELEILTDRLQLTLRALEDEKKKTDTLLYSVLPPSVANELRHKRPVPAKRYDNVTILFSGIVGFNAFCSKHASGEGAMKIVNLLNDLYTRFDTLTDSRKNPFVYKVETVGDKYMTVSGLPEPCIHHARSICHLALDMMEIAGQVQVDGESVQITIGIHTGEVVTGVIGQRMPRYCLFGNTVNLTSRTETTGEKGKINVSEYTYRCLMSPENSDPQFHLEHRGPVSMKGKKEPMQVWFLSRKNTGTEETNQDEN
Assay: Action on recombinant guanylate cyclase reporter cell line
Format: cell-based
Details: in some cases mean values from individual determinations
Method in brief: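 Each compound is applied to a cell line engineered with a reporter for recombinant guanylate cyclase. The minimal effective concentration is then noted, in part as a mean across separate determinations.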

Compound	MEC (minimal effective concentration) [µM]
Cc1cc(OCc2c(F)cccc2F)c2nc(C)c(C(=O)NCC(N)c3ccc4c(c3)OCCO4)n2c1 (racemic) [Example 371, rac-N-[2-amino-2-(2,3-dihydro-1,4-benzodioxin-6-yl)ethyl]-8-[(2,6-difluorobenzyl)oxy]-2,6-dimethylimidazo[1,2-a]pyridine-3-carboxamide]	3.00
Cc1cc(OCc2c(F)cccc2F)c2nc(C)c(C(=O)NC3CCC3(C)N)n2c1 (racemic) [Example 331, rac-N-(2-amino-2-methylcyclobutyl)-8-[(2,6-difluorobenzyl)oxy]-2,6-dimethylimidazo[1,2-a]pyridine-3-carboxamide]	0.30
Cc1nc2c(OCc3c(F)cccc3F)cccn2c1C(=O)NC1CNc2ccccc21 (single isomer, unassigned; ent-8) [Example 47, ent-8-[(2,6-Difluorobenzyl)oxy]-N-(2,3-dihydro-1H-indol-3-yl)-2-methylimidazo[1,2-a]pyridine-3-carboxamide]	0.30
Cc1nc2c(OCc3c(F)cccc3F)cccn2c1C(=O)NCC1(N)CC1 [Example 38, N-[(1-aminocyclopropyl)methyl]-8-[(2,6-difluorobenzyl)oxy]-2-methylimidazo[1,2-a]-pyridine-3-carboxamide]	0.40
Cc1cc(OCc2c(F)cccc2F)c2nc(C)c(C(=O)NC3CCC3N)n2c1 (single isomer, unassigned; enantiomer a) [Example 328, ent-N-(2-aminocyclobutyl)-8-[(2,6-difluorobenzyl)oxy]-2,6-dimethylimidazo[1,2-a]pyridine-3-carboxamide (Enantiomer A)]	3.00
Cc1nc2c(OCc3c(F)cccc3F)cc(Cl)cn2c1C(=O)NCC(C)(C)N1CCCC1 [Example 148, 6-chloro-8-[(2,6-difluorobenzyl)oxy]-2-methyl-N-[2-methyl-2-(pyrrolidin-1-yl)-propyl]imidazo[1,2-a]pyridine-3-carboxamide]	1.00
Cc1cc(OCc2c(F)cccc2F)c2nc(C)c(C(=O)NCC(N)c3cccc(OCCO)c3)n2c1 (racemic) [Example 367, rac-N-{2-amino-2-[3-(2-hydroxyethoxy)phenyl]ethyl}-8-[(2,6-difluorobenzyl)oxy]-2,6-dimethylimidazo[1,2-a]pyridine-3-carboxamide]	3.00
Cc1cc(OCc2c(F)cccc2F)c2nc(C)c(C(=O)NC3CCC3(C)N)n2c1 (single isomer, unassigned; enantiomer b) [Example 333, ent-N-[2-amino-2-methylcyclobutyl]-8-[(2,6-difluorobenzyl)oxy]-2,6-dimethylimidazo[1,2-a]pyridine-3-carboxamide (Enantiomer B)]	1.00
Cc1cc(OCc2c(F)cccc2F)c2nc(C)c(C(=O)NCC(N)C#N)n2c1 (single isomer, unassigned; enantiomer a) [Example 401, ent-N-(2-amino-2-cyanoethyl)-8-[(2,6-difluorobenzyl)oxy]-2,6-dimethylimidazo[1,2-a]pyridine-3-carboxamide (Enantiomer A)]	1.00
COc1cccc(F)c1COc1cc(C)cn2c(C(=O)NCC(C)(C)N)c(C)nc12 [Example 352, N-(2-amino-2-methylpropyl)-8-[(2-fluoro-6-methoxybenzyl)oxy]-2,6-dimethylimidazo[1,2-a]pyridine-3-carboxamide]	3.00
Cc1nc2c(OCc3c(F)cccc3F)cc(Cl)cn2c1C(=O)NCCNC(C)C [Example 149, 6-chloro-8-[(2,6-difluorobenzyl)oxy]-N-[2-(isopropylamino)ethyl]-2-methylimidazo[1,2-a]-pyridine-3-carboxamide]	1.00
Cc1nc2c(OCc3c(F)cccc3F)cccn2c1C(=O)NC(CN1CCOCC1)c1ccccc1 (racemic) [Example 134, rac-8-[(2,6-difluorobenzyl)oxy]-2-methyl-N-[2-(morpholin-4-yl)-1-phenylethyl]imidazo[1,2-a]-pyridine-3-carboxamide]	3.00
Cc1cc(OCc2c(F)cccc2F)c2nc(C)c(C(=O)NC(CN)c3ccc(F)c(F)c3)n2c1 (stereo not drawn) [Example 51, ent-N-[2-Amino-1-(3,4-difluorophenyl)ethyl]-8-[(2,6-difluorobenzyl)oxy]-2,6-dimethylimidazo-[1,2-a]pyridine-3-carboxamide]	0.20
Cc1cc(OCc2c(F)cccc2F)c2nc(C)c(C(=O)NC3(C)CCC3(C)N)n2c1 (single isomer, unassigned; enantiomer a) [Example 336, ent-N-[(2-amino-1,2-dimethylcyclobutyl]-8-[(2,6-difluorobenzyl)oxy]-2,6-dimethylimidazo[1,2-a]pyridine-3-carboxamide (Enantiomer A)]	0.30
Cc1nc2c(OCc3c(F)cccc3F)cc(Cl)cn2c1C(=O)NCC1CCCCN1 (single isomer, unassigned; ent-6) [Example 190, ent-6-Chloro-8-[(2,6-difluorobenzyl)oxy]-2-methyl-N-(piperidin-2-ylmethyl)imidazo[1,2-a]-pyridine-3-carboxamide]	1.00
CCCC(C)(N)CNC(=O)c1c(C)nc2c(OCc3c(F)cccc3F)cc(OC)cn12 (single isomer, unassigned; enantiomer b) [Example 278, ent-N-(2-amino-2-methylpentyl)-8-[(2,6-difluorobenzyl)oxy]-6-methoxy-2-methylimidazo[1,2-a]pyridine-3-carboxamide (Enantiomer B)]	0.3
Cc1cc(OCc2c(F)cccc2F)c2nc(C)c(C(=O)NCC(C)(N)Cc3ccccn3)n2c1 (single isomer, unassigned; enantiomer a) [Example 298, ent-N-[2-amino-2-methyl-3-(pyridin-2-yl)propyl]-8-[(2,6-difluorobenzyl)oxy]-2,6-dimethyl-imidazo[1,2-a]pyridine-3-carboxamide (Enantiomer A)]	0.10
Cc1nc2c(OCc3c(F)cccc3F)cccn2c1C(=O)NC1CNc2ccccc21 (racemic) [Example 28, rac-8-[(2,6-difluorobenzyl)oxy]-N-(2,3-dihydro-1H-indol-3-yl)-2-methylimidazo[1,2-a]pyridine-3-carboxamide]	0.30
Cc1cc(OCc2c(F)cccc2F)c2nc(C)c(C(=O)NC3CC(N)C3)n2c1 (mixture of isomers) [Example 334, N-(3-aminocyclobutyl)-8-[(2,6-difluorobenzyl)oxy]-2,6-dimethylimidazo[1,2-a]pyridine-3-carboxamide (cis/trans mixture)]	1.00
Cc1cc(OCc2c(F)cccc2F)c2nc(C)c(C(=O)NC3CNCC(F)(F)C3)n2c1 (racemic) [Example 312, rac-8-[(2,6-difluorobenzyl)oxy]-N-(5,5-difluoropiperidin-3-yl)-2,6-dimethylimidazo[1,2-a]pyridine-3-carboxamide]	0.30
COc1cccc(C(CN)NC(=O)c2c(C)nc3c(OCc4c(F)cccc4F)cc(C)cn23)c1 (racemic) [Example 382, rac-N-[2-amino-1-(3-methoxyphenyl)ethyl]-8-[(2,6-difluorobenzyl)oxy]-2,6-dimethylimidazo[1,2-a]pyridine-3-carboxamide]	0.30
Cc1nc2c(OCc3c(F)cccc3F)cc(Cl)cn2c1C(=O)NCCCN [Example 37, N-(3-aminopropyl)-6-chloro-8-[(2,6-difluorobenzyl)oxy]-2-methylimidazo[1,2-a]pyridine-3-carboxamide]	1.00
Cc1cc(OCc2c(F)cccc2F)c2nc(C)c(C(=O)NCC(N)CC(F)(F)F)n2c1 (single isomer, unassigned) [Example 129, ent-N-(2-Amino-4,4,4-trifluorobutyl)-8-[(2,6-difluorobenzyl)oxy]-2,6-dimethylimidazo[1,2-a]-pyridine-3-carboxamide]	0.10
